Measured values from patent publication USRE39591E1, “6-O-substituted ketolides having antibacterial activity” (Abbott Laboratories, priority 1996, dated 2007).
Values after ≈ are worked out from the molar mass of the structure shown.

System: up to 32 different microorganisms
Test: in vitro antibacterial activity (MIC), agar dilution on Brain Heart Infusion (BHI) agar with Steers replicator
Type: cell-based
Details: unit assumed
Method: Representative compounds of the present invention were assayed in vitro for antibacterial activity as follows: Twelve petri dishes containing successive aqueous dilutions of the test compound mixed with 10 mL of sterilized Brain Heart Infusion (BHI) agar (Difco 0148-01-5) were prepared. Each plate was inoculated with 1:100 (or 1:10 for slow-growing strains, such as Micrococcus and Streptococcus) dilutions of up to 32 different microorganisms, using a Steers replicator block. The inoculated plates were incubated at 35°-37° C. for 20 to 24 hours. In addition, a control plate, using BHI agar containing no test compound, was prepared and incubated at the beginning and end of each test.
An additional plate containing a compound having known susceptibility patterns for the organisms being tested and belonging to the same antibiotic class as the test compound was also prepared and incubated as a further control, as well as to provide test-to-test comparability. Erythromycin A was used for this purpose.
After incubation, each plate was visually inspected. The minimum inhibitory concentration (MIC) was defined as the lowest concentration of drug yielding no growth, a slight haze, or sparsely isolated colonies on the inoculum spot as compared to the growth control.

Which results are given for CCC1OC(=O)C(C)C(=O)C(C)C(OC2OC(C)CC(N(C)C)C2O)C(C)(OCC=Cc2cnc3ccccc3c2)CC(C)C(=O)C(C)C2N(CCN(C)C)C(=O)OC12C (stereo not drawn) [Example 182, Compound of Formula (IX): L is CO, T is N (CH2CH2N(CH3)2), R is —CH2CH═CH(3-quinolyl)]?
MIC (Candida albicans CCH 442 (code TT)): > 100 µg/mL; MIC (Enterococcus faecism ATCC 8043 (code II)): 0.1 µg/mL; MIC (Escherichia coli DC-2 (code SS)): > 100 µg/mL; MIC (Escherichia coli JUHL (code QQ)): > 100 µg/mL; MIC (Escherichia coli SS (code RR)): 0.39 µg/mL; MIC (Haemophilis influenzae DILL AMP R (code WW)): 8 µg/mL; MIC (Micrococcus luteus ATCC 4698 (code PP)): 0.39 µg/mL; MIC (Micrococcus luteus ATCC 9341 (code OO)): 0.02 µg/mL; MIC (Mycobacterium smegmatis ATCC 114 (code UU)): 0.39 µg/mL; MIC (Nocardia Asteroides ATCC9970 (code VV)): 0.2 µg/mL; MIC (Staphylococcus aureus 1775 (code GG)): > 100 µg/mL; MIC (Staphylococcus aureus A5177 (code BB)): 0.2 µg/mL; MIC (Staphylococcus aureus A-5278 (code CC)): > 100 µg/mL; MIC (Staphylococcus aureus ATCC 6538P (code AA)): 0.39 µg/mL; MIC (Staphylococcus aureus CMX 553 (code FF)): 0.39 µg/mL; MIC (Staphylococcus aureus CMX 642A (code DD)): 0.39 µg/mL; MIC (Staphylococcus aureus NCTC10649M (code EE)): 0.39 µg/mL; MIC (Staphylococcus epidermidis 3519 (code HH)): 0.78 µg/mL; MIC (Streptococcus Pneumonia 5649 (code ZZA)): 2 µg/mL; MIC (Streptococcus Pneumonia 5979 (code ZZ)): > 128 µg/mL; MIC (Streptococcus Pneumonia ATCC6303 (code XX)): 0.125 µg/mL; MIC (Streptococcus Pneumonia GYR 1171 (code YY)): 0.25 µg/mL; MIC (Streptococcus agalactiae CMX 508 (code KK)): 0.05 µg/mL; MIC (Streptococcus bovis A-5169 (code JJ)): 0.01 µg/mL; MIC (Streptococcus pyogenes 930 (code MM)): 100 µg/mL; MIC (Streptococcus pyogenes EES61 (code LL)): 0.01 µg/mL; MIC (Streptococcus pyogenes PIU 2548 (code NN)): 0.39 µg/mL

How did the MIC (organism code AA) turn out when CC[C@H]1OC(=O)[C@H](C)C(=O)[C@H](C)[C@@H](O[C@@H]2O[C@H](C)C[C@H](N(C)C)[C@H]2O)[C@@](C)(OCC=NOCc2ccnc3ccccc23)C[C@@H](C)C(=O)[C@H](C)[C@H]2NC(=O)O[C@@]21C [Example 231, Compound of Formula (IX): L is CO, T is NH, R is —CH2CH═NOCH2(4-quinolyl)] was run?
The MIC was 0.1 µg/mL.

And the MIC (organism code BB)?
The MIC was 0.1 µg/mL.

What about the MIC (organism code CC) of the same molecule?
Its MIC is > 100 µg/mL.

And the MIC (organism code DD)?
The MIC was 0.1 µg/mL.

And the MIC (organism code EE)?
The MIC was 0.1 µg/mL.

And the MIC (organism code FF)?
The MIC was 0.05 µg/mL.

And the MIC (organism code GG)?
The MIC was > 100 µg/mL.

And the MIC (organism code HH)?
Its MIC is 0.2 µg/mL.

And the MIC (organism code II)?
Its MIC is 0.02 µg/mL.

What about the MIC (organism code JJ) of the same molecule?
Its MIC is 0.02 µg/mL.

What about the MIC (organism code KK) of the same molecule?
The MIC was 0.02 µg/mL.

What about the MIC (organism code LL) of the same molecule?
The MIC was 0.02 µg/mL.

What about the MIC (organism code MM) of the same molecule?
The MIC was 100 µg/mL.

And the MIC (organism code NN)?
The MIC was 0.1 µg/mL.

And the MIC (organism code OO)?
Its MIC is 0.02 µg/mL.

And the MIC (organism code PP)?
Its MIC is 0.1 µg/mL.

What about the MIC (organism code QQ) of the same molecule?
The MIC was 100 µg/mL.

What about the MIC (organism code RR) of the same molecule?
Its MIC is 0.39 µg/mL.

And the MIC (organism code SS)?
Its MIC is 100 µg/mL.

What about the MIC (organism code TT) of the same molecule?
The MIC was > 100 µg/mL.

And the MIC (organism code UU)?
The MIC was 0.78 µg/mL.

What about the MIC (organism code VV) of the same molecule?
Its MIC is 0.05 µg/mL.

What about the MIC (organism code WW) of the same molecule?
The MIC was 2 µg/mL.

What about the MIC (organism code XX) of the same molecule?
The MIC was 0.03 µg/mL.

And the MIC (organism code YY)?
The MIC was 0.03 µg/mL.

What about the MIC (organism code ZZ) of the same molecule?
The MIC was > 128 µg/mL.

And the MIC (organism code ZZA)?
The MIC was 0.5 µg/mL.

C=CCO[C@@]1(C)C[C@@H](C)C(=O)[C@H](C)[C@H]2N(N)C(=O)O[C@]2(C)[C@@H](CC)OC(=O)[C@H](C)C(=O)[C@H](C)[C@H]1O[C@@H]1O[C@H](C)C[C@H](N(C)C)[C@H]1O [Example 262, Compound of Formula (IX): L is CO, T is N(NH2), R is —CH CH═CH2] was tested. Which MIC (organism code AA) did it give?
The MIC was 0.78 µg/mL.

What about the MIC (organism code BB) of the same molecule?
The MIC was 0.78 µg/mL.

And the MIC (organism code CC)?
Its MIC is > 100 µg/mL.

And the MIC (organism code DD)?
The MIC was 0.78 µg/mL.

What about the MIC (organism code EE) of the same molecule?
Its MIC is 0.78 µg/mL.

What about the MIC (organism code FF) of the same molecule?
The MIC was 0.78 µg/mL.

What about the MIC (organism code GG) of the same molecule?
Its MIC is > 100 µg/mL.

What about the MIC (organism code HH) of the same molecule?
The MIC was 0.78 µg/mL.

And the MIC (organism code II)?
Its MIC is 0.39 µg/mL.

And the MIC (organism code JJ)?
Its MIC is ≤ 0.005 µg/mL.

What about the MIC (organism code KK) of the same molecule?
Its MIC is 0.05 µg/mL.

What about the MIC (organism code LL) of the same molecule?
Its MIC is 0.1 µg/mL.

And the MIC (organism code MM)?
The MIC was > 100 µg/mL.

And the MIC (organism code NN)?
The MIC was 0.78 µg/mL.

What about the MIC (organism code OO) of the same molecule?
The MIC was 0.1 µg/mL.

And the MIC (organism code PP)?
Its MIC is 0.39 µg/mL.

What about the MIC (organism code QQ) of the same molecule?
Its MIC is > 100 µg/mL.

What about the MIC (organism code RR) of the same molecule?
Its MIC is 1.56 µg/mL.

And the MIC (organism code SS)?
Its MIC is > 100 µg/mL.

And the MIC (organism code TT)?
Its MIC is > 100 µg/mL.

And the MIC (organism code UU)?
Its MIC is 6.2 µg/mL.

What about the MIC (organism code VV) of the same molecule?
Its MIC is 0.39 µg/mL.

And the MIC (organism code WW)?
Its MIC is 16 µg/mL.

What about the MIC (organism code XX) of the same molecule?
The MIC was 0.03 µg/mL.

What about the MIC (organism code YY) of the same molecule?
Its MIC is 0.03 µg/mL.

What about the MIC (organism code ZZ) of the same molecule?
The MIC was > 128 µg/mL.

What about the MIC (organism code ZZA) of the same molecule?
Its MIC is 0.5 µg/mL.

Which MIC (organism code AA) does the source give for CCC1OC(=O)C(C)C(=O)C(C)C(OC2OC(C)CC(N(C)C)C2O)C(C)(OCC=Cc2ccnc3ccccc23)CC(C)C(=O)C(C)C2NC(=O)OC12C (stereo not drawn) [Example 213, R is —CH2CH═CH-(4-quinolyl)] here?
Its MIC is 0.2 µg/mL (≈ 0.261 µM).

And the MIC (organism code BB)?
Its MIC is 0.2 µg/mL (≈ 0.261 µM).

And the MIC (organism code CC)?
The MIC was > 100 µg/mL.

What about the MIC (organism code DD) of the same molecule?
Its MIC is 0.2 µg/mL (≈ 0.261 µM).

And the MIC (organism code EE)?
Its MIC is 0.2 µg/mL (≈ 0.261 µM).

And the MIC (organism code FF)?
The MIC was 0.2 µg/mL (≈ 0.261 µM).

What about the MIC (organism code GG) of the same molecule?
The MIC was > 100 µg/mL.

And the MIC (organism code HH)?
Its MIC is 0.2 µg/mL (≈ 0.261 µM).

And the MIC (organism code II)?
Its MIC is 0.1 µg/mL (≈ 0.131 µM).

What about the MIC (organism code JJ) of the same molecule?
The MIC was 0.05 µg/mL (≈ 0.0653 µM).

What about the MIC (organism code KK) of the same molecule?
Its MIC is 0.05 µg/mL (≈ 0.0653 µM).

What about the MIC (organism code LL) of the same molecule?
The MIC was 0.02 µg/mL (≈ 0.0261 µM).

And the MIC (organism code MM)?
The MIC was 100 µg/mL (≈ 131 µM).

And the MIC (organism code NN)?
The MIC was 0.39 µg/mL (≈ 0.509 µM).

And the MIC (organism code OO)?
Its MIC is 0.05 µg/mL (≈ 0.0653 µM).

And the MIC (organism code PP)?
The MIC was 0.2 µg/mL (≈ 0.261 µM).

What about the MIC (organism code QQ) of the same molecule?
Its MIC is 100 µg/mL (≈ 131 µM).

What about the MIC (organism code RR) of the same molecule?
Its MIC is 0.39 µg/mL (≈ 0.509 µM).

What about the MIC (organism code SS) of the same molecule?
Its MIC is > 100 µg/mL.

What about the MIC (organism code TT) of the same molecule?
Its MIC is > 100 µg/mL.

What about the MIC (organism code UU) of the same molecule?
The MIC was 0.39 µg/mL (≈ 0.509 µM).

And the MIC (organism code VV)?
The MIC was 0.39 µg/mL (≈ 0.509 µM).

What about the MIC (organism code WW) of the same molecule?
Its MIC is 4 µg/mL (≈ 5.22 µM).

What about the MIC (organism code XX) of the same molecule?
The MIC was 0.03 µg/mL (≈ 0.0392 µM).

What about the MIC (organism code YY) of the same molecule?
The MIC was 0.03 µg/mL (≈ 0.0392 µM).

And the MIC (organism code ZZ)?
Its MIC is > 128 µg/mL.

What about the MIC (organism code ZZA) of the same molecule?
Its MIC is 1 µg/mL (≈ 1.31 µM).
